Laboratory results as given in the NIST ThermoML archive (doi:10.1016/j.jct.2011.01.016).

Assays:
[1] = 101.33 kPa, Liquid; for viscosity: Concentric cylinders viscometry; for mass density: Vibrating tube method
[2] = xn = mol fraction of the nth substance listed; conditions: 100 kPa, Liquid; for viscosity: Concentric cylinders viscometry; for mass density: Vibrating tube method

CC(CC(C)(C)C)CP(=O)([O-])CC(C)CC(C)(C)C.CCCCCCCCCCCCCC[P+](CCCCCC)(CCCCCC)CCCCCC
[1]
Conditions	mass density [kg/m3]	viscosity [mPa·s]
278.15 K	897.3	5574.5
283.15 K	894.3	3805.5
288.15 K	891.3	2675.3
293.15 K	888.3	1918.2
298.15 K	885.3	1401.7
303.15 K	882.3	1041.5
308.15 K	879.3	785.77
313.15 K	876.3	601.35
318.15 K	873.4	466.24
323.15 K	870.4	365.83
328.15 K	867.5	290.28
333.15 K	864.6	232.76
338.15 K	861.7	188.43
343.15 K	858.9	153.95
348.15 K	856	126.77
353.15 K	853.2	105.22
358.15 K	850.3	87.92
363.15 K	847.5	73.91

CCCCCCCCCCCCCC[P+](CCCCCC)(CCCCCC)CCCCCC.[Br-] [tetradecyltrihexylphosphonium bromide] + O
[2], x2 = 0.68
Conditions	mass density [kg/m3]	viscosity [mPa·s]
298.15 K	957	238.84
303.15 K	953.6	180.54
308.15 K	950.3	138.77
313.15 K	946.9	108.27
318.15 K	943.6	85.71
323.15 K	940.2	68.71
328.15 K	936.9	55.74
333.15 K	933.5	45.71
338.15 K	930.2	37.91
343.15 K	926.8	31.74
348.15 K	923.5	26.82
353.15 K	920.1	22.85
358.15 K	916.7	19.62
363.15 K	913.4	16.94

CCCCCCCCCCCCCC[P+](CCCCCC)(CCCCCC)CCCCCC.CS(=O)(=O)[O-] [trihexyltetradecylphosphonium methanesulfonate]
[1]
Conditions	mass density [kg/m3]	viscosity [mPa·s]
278.15 K	940.5	7526.5
283.15 K	937.4	4689.7
288.15 K	934.3	3040.4
293.15 K	931.2	2022.2
298.15 K	928.1	1379.4
303.15 K	925.1	962.83
308.15 K	922	686.13
313.15 K	918.9	498.53
318.15 K	915.9	369.02
323.15 K	912.9	277.77
328.15 K	909.9	212.37
333.15 K	907	164.79
338.15 K	904.1	129.63
343.15 K	901.2	103.34
348.15 K	898.3	83.37
353.15 K	895.3	68.01
358.15 K	892.4	56.06
363.15 K	889.4	46.65

CCCCCCCCCCCCCC[P+](CCCCCC)(CCCCCC)CCCCCC.[Br-] [tetradecyltrihexylphosphonium bromide]
[1]
Conditions	mass density [kg/m3]	viscosity [mPa·s]
278.15 K	967.5	16955
283.15 K	964.4	10457
288.15 K	961.3	6688.3
293.15 K	958.2	4421.3
298.15 K	955.2	2988.4
303.15 K	952.1	2065.2
308.15 K	949	1456.3
313.15 K	946	1046.7
318.15 K	942.9	764.04
323.15 K	939.8	568.06
328.15 K	936.7	428.98
333.15 K	933.7	328.56
338.15 K	930.7	255.03
343.15 K	927.6	200.46
348.15 K	924.6	159.44
353.15 K	921.7	128.21
358.15 K	918.7	104.15
363.15 K	915.7	85.44

CCCCCCCCCC(=O)[O-].CCCCCCCCCCCCCC[P+](CCCCCC)(CCCCCC)CCCCCC [trihexyltetradecylphosphonium decanoate] + O
[2], x2 = 0.872
Conditions	mass density [kg/m3]	viscosity [mPa·s]
298.15 K	901.2	90.95
303.15 K	897.8	70.57
308.15 K	894.5	55.66
313.15 K	891.1	44.65
318.15 K	887.7	36.26
323.15 K	884.3	29.77
328.15 K	880.9	24.65
333.15 K	877.5	20.59
338.15 K	874	17.35
343.15 K	870.6	14.72
348.15 K	867.1	12.57
353.15 K	863.7	10.8
358.15 K	860.2	9.345
363.15 K	856.8	8.114

CCCCCCCCCCCCCC[P+](CCCCCC)(CCCCCC)CCCCCC.O=S(=O)([N-]S(=O)(=O)C(F)(F)F)C(F)(F)F
[1]
Conditions	mass density [kg/m3]	viscosity [mPa·s]
278.15 K	1081.1	1246.2
283.15 K	1077.4	871.17
288.15 K	1073.6	622.45
293.15 K	1069.8	453.64
298.15 K	1066.1	336.74
303.15 K	1062.4	254.24
308.15 K	1058.8	195.04
313.15 K	1055.2	151.85
318.15 K	1051.6	119.85
323.15 K	1048	95.81
328.15 K	1044.4	77.55
333.15 K	1040.9	63.47
338.15 K	1037.3	52.49
343.15 K	1033.7	43.84
348.15 K	1030.2	36.95
353.15 K	1026.6	31.41
358.15 K	1023.1	26.91

CCCCCCCCCCCCCC[P+](CCCCCC)(CCCCCC)CCCCCC.N#C[N-]C#N [tetradecyl(trihexyl)phosphonium dicyanamide] + O
[2], x2 = 0.496
Conditions	mass density [kg/m3]	viscosity [mPa·s]
298.15 K	900.7	190.83
303.15 K	897.6	145.77
308.15 K	894.7	113.3
313.15 K	891.7	89.4
318.15 K	888.7	71.54
323.15 K	885.7	57.96
328.15 K	882.7	47.54
333.15 K	879.8	39.43
338.15 K	876.8	33.03
343.15 K	873.8	27.94
348.15 K	870.9	23.84
353.15 K	867.9	20.52
358.15 K	865	17.78
363.15 K	862	15.51

CCCCCCCCCCCCCC[P+](CCCCCC)(CCCCCC)CCCCCC.O=S(=O)([N-]S(=O)(=O)C(F)(F)F)C(F)(F)F + O
[2], x2 = 0.088
Conditions	mass density [kg/m3]	viscosity [mPa·s]
298.15 K	1066.1	300.01
303.15 K	1062.4	224.6
308.15 K	1058.7	170.8
313.15 K	1055	132.06
318.15 K	1051.4	103.5
323.15 K	1047.7	82.08
328.15 K	1044	65.75
333.15 K	1040.4	53.41
338.15 K	1036.7	44.23
343.15 K	1033.1	37.14
348.15 K	1029.6	31.46
353.15 K	1026	26.9
358.15 K	1022.4	23.17
363.15 K	1018.8	20.09

CC(CC(C)(C)C)CP(=O)([O-])CC(C)CC(C)(C)C.CCCCCCCCCCCCCC[P+](CCCCCC)(CCCCCC)CCCCCC + O
[2], x2 = 0.876
Conditions	mass density [kg/m3]	viscosity [mPa·s]
298.15 K	907.3	173.82
303.15 K	903.9	128.58
308.15 K	900.5	97.03
313.15 K	897.2	74.52
318.15 K	893.8	58.16
323.15 K	890.4	46.06
328.15 K	887.1	37
333.15 K	883.6	30.09
338.15 K	880.2	24.76
343.15 K	876.8	20.59
348.15 K	873.4	17.3
353.15 K	869.9	14.66
358.15 K	866.5	12.53
363.15 K	863.1	10.78

CCCCCCCCCCCCCC[P+](CCCCCC)(CCCCCC)CCCCCC.[Cl-] [trihexyl(tetradecyl)phosphonium chloride]
[1]
Conditions	mass density [kg/m3]	viscosity [mPa·s]
278.15 K	901.6	15339
283.15 K	898.6	9447.7
288.15 K	895.7	6088.5
293.15 K	892.8	4030.4
298.15 K	889.9	2729.1
303.15 K	887	1890.3
308.15 K	884	1336.4
313.15 K	881.1	962.5
318.15 K	878.2	705.75
323.15 K	875.3	525.98
328.15 K	872.3	398.19
333.15 K	869.5	305.73
338.15 K	866.6	237.78
343.15 K	863.7	187.39
348.15 K	860.8	149.21
353.15 K	858	120.11
358.15 K	855.1	97.66
363.15 K	852.3	80.17

CCCCCCCCCCCCCC[P+](CCCCCC)(CCCCCC)CCCCCC.N#C[N-]C#N [tetradecyl(trihexyl)phosphonium dicyanamide]
[1]
Conditions	mass density [kg/m3]	viscosity [mPa·s]
278.15 K	910.8	1646.8
283.15 K	907.8	1144.9
288.15 K	904.9	816.36
293.15 K	901.9	592.93
298.15 K	899	438.57
303.15 K	896.1	329.68
308.15 K	893.3	251.71
313.15 K	890.4	195
318.15 K	887.6	153.15
323.15 K	884.8	121.78
328.15 K	882	97.96
333.15 K	879.2	79.73
338.15 K	876.4	65.56
343.15 K	873.7	54.43
348.15 K	870.9	45.6
353.15 K	868.1	38.53
358.15 K	865.3	32.85
363.15 K	862.6	28.2

CCCCCCCCCC(=O)[O-].CCCCCCCCCCCCCC[P+](CCCCCC)(CCCCCC)CCCCCC [trihexyltetradecylphosphonium decanoate]
[1]
Conditions	mass density [kg/m3]	viscosity [mPa·s]
278.15 K	893.2	1915.7
283.15 K	890	1292.9
288.15 K	886.9	902.16
293.15 K	883.7	644.41
298.15 K	880.6	471.51
303.15 K	877.5	352.09
308.15 K	874.4	267.73
313.15 K	871.3	207.27
318.15 K	868.3	163
323.15 K	865.3	130.01
328.15 K	862.2	104.89
333.15 K	859.2	85.75
338.15 K	856.2	70.93
343.15 K	853.2	59.27
348.15 K	850.2	49.99
353.15 K	847.3	42.54
358.15 K	844.3	36.46
363.15 K	841.3	31.47
